Test [1] relates to double stranded polyriboadenylic acid (ds poly-A) (RNA, polymer) A. In words: absorption titration. The settings on record: 10 mM citrate-phosphate buffer, pH 4.5, 20°C; up to P/D 100 (301.09 µM ds poly-A, 3.05 µM ST).
Test [2] has the same test system. In words: circular dichroism. The settings on record: 10 mM citrate-phosphate buffer, pH 4.5, 20°C; 100.0 µM ds poly-A, up to 55.60 µM ST. On the technique in general: Circular dichroism is the unequal absorption of left and right circularly polarised light.
For test [3] the test system is unchanged. In words: fluorescence titration. To be noted: 10 mM citrate-phosphate buffer, pH 4.5, 20°C; up to P/D 100 (510.50 µM ds poly-A, 5.0 µM ST).
For test [4] the test system is unchanged. The experiment in a line: thermal melting profile (CD). To be noted: 10 mM citrate-phosphate buffer, pH 4.5; 100.0 µM ds poly-A, D/P 0.53; no change, transition around 74°C.
Test [5] relates to single stranded polyriboadenylic acid (ss poly-A) (RNA, polymer) A. The experiment in a line: fluorescence titration, Scatchard, McGhee-von Hippel fit. To be noted: 10 mM Na+; 10 mM citrate-phosphate buffer, pH 7.0, 20°C; intrinsic constant, per nucleotide; per base.
Test [6] shares this test system. In words: absorption titration, Scatchard, McGhee-von Hippel fit. To be noted: 10 mM Na+; 10 mM citrate-phosphate buffer, pH 7.0, 20°C; intrinsic constant, per nucleotide; per base.

The values below come from PMC3912202 (2014).

Take `Cc1cc2nc3cc(C)c(N)cc3[n+](-c3ccccc3)c2cc1N`: the binding entry in test [1], in test [2], in test [3] and in test [4] was “no” each time. Besides, the “K′” value in test [5] is 6.15±0.20 × 10^5 M^-1; in test [6] it was 5.98±0.20 × 10^5 M^-1.
